In the NIST ThermoML archive (doi:10.1021/acs.jced.5b00752):
Where “and” joins values, the source holds several entries; their conditions need not be identical. Equal entries are not always repeated. ± gives the expanded uncertainty stated by the source.

Conditions: Closed cell (Static) method

CCOC(=O)c1ccccc1C(=O)OCC [diethyl phthalate]
vapor or sublimation pressure (312.21 K, Liquid): 0.00032 ± 0.0002 kPa and 0.00035 ± 0.0002 kPa | vapor or sublimation pressure (322.21 K, Liquid): 0.00105 ± 0.00023 kPa and 0.00103 ± 0.00023 kPa | vapor or sublimation pressure (332.21 K, Liquid): 0.00269 ± 0.00031 kPa | vapor or sublimation pressure (342.19 K, Liquid): 0.00623 ± 0.00048 kPa | vapor or sublimation pressure (352.18 K, Liquid): 0.01358 ± 0.00086 kPa | vapor or sublimation pressure (352.2 K, Liquid): 0.01352 ± 0.00085 kPa | vapor or sublimation pressure (362.2 K, Liquid): 0.02775 ± 0.0014 kPa | vapor or sublimation pressure (372.19 K, Liquid): 0.05429 ± 0.0025 kPa | vapor or sublimation pressure (372.2 K, Liquid): 0.05407 ± 0.0025 kPa | vapor or sublimation pressure (372.22 K, Liquid): 0.05424 ± 0.0025 kPa | vapor or sublimation pressure (382.23 K, Liquid): 0.1008 ± 0.0046 kPa | vapor or sublimation pressure (392.24 K, Liquid): 0.1821 ± 0.0076 kPa | vapor or sublimation pressure (402.37 K, Liquid): 0.3169 ± 0.013 kPa | vapor or sublimation pressure (412.38 K, Liquid): 0.5303 ± 0.022 kPa | vapor or sublimation pressure (422.49 K, Liquid): 0.8621 ± 0.035 kPa | vapor or sublimation pressure (442.28 K, Liquid): 2.082 ± 0.084 kPa | vapor or sublimation pressure (452.12 K, Liquid): 3.099 ± 0.12 kPa

[CH]1C=CC=C1.[CH]1C=CC=C1.[Fe] [ferrocene]
vapor or sublimation pressure (312.2 K, Crystal): 0.00369 ± 0.0005 kPa | vapor or sublimation pressure (312.21 K, Crystal): 0.00359 ± 0.00051 kPa | vapor or sublimation pressure (322.21 K, Crystal): 0.009 ± 0.0004 kPa and 0.00911 ± 0.00041 kPa | vapor or sublimation pressure (332.2 K, Crystal): 0.02078 ± 0.00063 kPa | vapor or sublimation pressure (332.21 K, Crystal): 0.02086 ± 0.00064 kPa and 0.02071 ± 0.00063 kPa | vapor or sublimation pressure (342.18 K, Crystal): 0.04497 ± 0.001 kPa and 0.04517 ± 0.001 kPa | vapor or sublimation pressure (352.17 K, Crystal): 0.0934 ± 0.0018 kPa [middle of 4 runs] | vapor or sublimation pressure (352.18 K, Crystal): 0.09249 ± 0.0017 kPa and 0.09264 ± 0.0018 kPa and 0.09328 ± 0.0018 kPa | vapor or sublimation pressure (352.19 K, Crystal): 0.0936 ± 0.0018 kPa | vapor or sublimation pressure (362.17 K, Crystal): 0.1851 ± 0.0025 kPa and 0.185 ± 0.0024 kPa | vapor or sublimation pressure (362.18 K, Crystal): 0.1854 ± 0.0025 kPa | vapor or sublimation pressure (372.2 K, Crystal): 0.3543 ± 0.0038 kPa | vapor or sublimation pressure (382.19 K, Crystal): 0.6508 ± 0.0061 kPa | vapor or sublimation pressure (392.2 K, Crystal): 1.158 ± 0.01 kPa | vapor or sublimation pressure (402.26 K, Crystal): 2.001 ± 0.011 kPa | vapor or sublimation pressure (402.31 K, Crystal): 2.008 ± 0.011 kPa | vapor or sublimation pressure (412.24 K, Crystal): 3.346 ± 0.013 kPa | vapor or sublimation pressure (412.32 K, Crystal): 3.361 ± 0.013 kPa | vapor or sublimation pressure (422.29 K, Crystal): 5.47 ± 0.017 kPa | vapor or sublimation pressure (422.4 K, Crystal): 5.502 ± 0.017 kPa | vapor or sublimation pressure (432.42 K, Crystal): 8.756 ± 0.023 kPa | vapor or sublimation pressure (442.26 K, Crystal): 13.53 ± 0.03 kPa | vapor or sublimation pressure (452.08 K, Liquid): 19.48 ± 0.31 kPa

c1ccc2ccccc2c1 [naphthalene]
vapor or sublimation pressure (312.2 K, Crystal): 0.04084 ± 0.0011 kPa and 0.04083 ± 0.0011 kPa | vapor or sublimation pressure (317.21 K, Crystal): 0.06326 ± 0.0015 kPa | vapor or sublimation pressure (322.21 K, Crystal): 0.09622 ± 0.002 kPa | vapor or sublimation pressure (327.21 K, Crystal): 0.1447 ± 0.0025 kPa | vapor or sublimation pressure (332.21 K, Crystal): 0.2153 ± 0.0032 kPa | vapor or sublimation pressure (337.21 K, Crystal): 0.315 ± 0.0043 kPa and 0.3154 ± 0.0043 kPa | vapor or sublimation pressure (342.19 K, Crystal): 0.4556 ± 0.0058 kPa | vapor or sublimation pressure (347.19 K, Crystal): 0.651 ± 0.0079 kPa | vapor or sublimation pressure (352.19 K, Crystal): 0.9213 ± 0.011 kPa | vapor or sublimation pressure (357.19 K, Liquid): 1.2 ± 0.014 kPa | vapor or sublimation pressure (362.2 K, Liquid): 1.521 ± 0.016 kPa | vapor or sublimation pressure (367.21 K, Liquid): 1.915 ± 0.019 kPa and 1.914 ± 0.019 kPa | vapor or sublimation pressure (372.22 K, Liquid): 2.393 ± 0.022 kPa | vapor or sublimation pressure (377.22 K, Liquid): 2.966 ± 0.027 kPa and 2.967 ± 0.027 kPa | vapor or sublimation pressure (382.22 K, Liquid): 3.657 ± 0.033 kPa | vapor or sublimation pressure (387.23 K, Liquid): 4.475 ± 0.038 kPa and 4.476 ± 0.038 kPa | vapor or sublimation pressure (392.24 K, Liquid): 5.45 ± 0.046 kPa | vapor or sublimation pressure (397.27 K, Liquid): 6.593 ± 0.055 kPa and 6.596 ± 0.056 kPa | vapor or sublimation pressure (402.37 K, Liquid): 7.962 ± 0.067 kPa | vapor or sublimation pressure (407.32 K, Liquid): 9.502 ± 0.079 kPa | vapor or sublimation pressure (412.4 K, Liquid): 11.33 ± 0.094 kPa | vapor or sublimation pressure (422.55 K, Liquid): 15.88 ± 0.13 kPa | vapor or sublimation pressure (432.58 K, Liquid): 21.75 ± 0.18 kPa | vapor or sublimation pressure (442.46 K, Liquid): 29.18 ± 0.24 kPa | vapor or sublimation pressure (452.37 K, Liquid): 38.57 ± 0.32 kPa

CC[N-]C.CC[N-]C.CC[N-]C.CC[N-]C.[Hf+4] [tetrakis(ethylmethylamino)hafnium]
vapor or sublimation pressure (312.19 K, Crystal): 0.00296 ± 0.00021 kPa | vapor or sublimation pressure (322.2 K, Crystal): 0.00715 ± 0.0003 kPa | vapor or sublimation pressure (332.2 K, Crystal): 0.01587 ± 0.00056 kPa | vapor or sublimation pressure (342.18 K, Crystal): 0.03287 ± 0.00082 kPa | vapor or sublimation pressure (352.19 K, Crystal): 0.0644 ± 0.0013 kPa | vapor or sublimation pressure (362.19 K, Crystal): 0.121 ± 0.0026 kPa | vapor or sublimation pressure (372.21 K, Crystal): 0.216 ± 0.005 kPa | vapor or sublimation pressure (382.21 K, Crystal): 0.37 ± 0.011 kPa | vapor or sublimation pressure (392.24 K, Crystal): 0.591 ± 0.028 kPa
